Where “and” joins values, the source holds several entries; their conditions need not be identical. Equal values may be shown once.
Columns and labels:
[1] = system: B. cinerea; test: Greenhouse test against tomato gray mold rot; assay type: in vivo, Botrytis cinerea; settings: sprayed at a usual concentration
Procedure: (§1) Greenhouse and field tests of the fungicidal activity of the antagonistic microbe against various pathogenic fungi are conduced. For this, tomatoes are cultivated both in a greenhouse and a field. The tomatoes cultivated in a greenhouse and a field are treated with the spore suspension of the novel antagonistic microbe of the present invention and then exposed to pathogenic fungi, B. cinerea causing gray mold rot, C. fulvum causing leaf mold, and A. solani causing early blight, separately. The experiment is performed according to a randomized block design with three repeat measures. For comparison, procymidone for use in the control of gray mold rot, propineb for use in the control of leaf mold, and azoxystrobin for use in the control of early blight are employed. Morbidity is determined by examining the infection of all tomatoes one by one or by a sampling method. A significance test is carried out according to Duncan's multiple range test (DMRT).
To determine the fungicidal activity of the antagonistic microbe of the present invention against B. cinerea causing gray mold rot, tomato plants were cultivated in a greenhouse with a dimension of 23.7 m in length, 7.0 m in width and 2.3 m in height. The cultivation was performed according to the following schedule;
February 11 1st Treatment with the antagonistic microbe (spray amount 300 L/10 a)
February 20 2nd Treatment with the antagonistic microbe (spray amount 300 L/10 a)
March 2 3rd Treatment with the antagonistic microbe (spray amount 330 L/10 a)
March 22 Measuring mobidity
The tomato plants treated with the antagonistic microbe occupied an area of 5.4 m2 and the experiment was performed in triplicate in a randomized block design. For comparison, Procymidone was sprayed as a control at a usual concentration. The spore suspension of the antagonistic microbe prepared in Example 2 was added directly to water to bring about 500- and 1,000-fold dilutions of the population. Morbidity was determined by examining the infection of all tomato plants one by one. A significance test was performed according to Duncan's multiple range test (DMRT).

[2] = system: A. solani; test: Field test against early blight in potato; assay type: in vivo, Alternaria solani; settings: sprayed at a usual concentration; for Morbidity (%) Avg.: average of 3 repeats
Procedure: as §1
To determine the fungicidal activity of the antagonistic microbe of the present invention against A. solani causing early blight, tomato was cultivated in a field. The cultivation was performed in the following schedule;
June 10 1st Treatment with the antagonistic microbe (spray amount 300 L/10 a)
July 5 2nd Treatment with the antagonistic microbe (spray amount 300 L/10 a)
July 13 Measuring mobidity
The experiment was performed in a randomized block design with three repeat measures. For comparison, azoxystrobin was sprayed as a control at a usual concentration. Morbidity was determined by examining the infection of 20 stocks of potatoes per repeat measure and attack frequency was calculated as in Experimental Example 4-2.

[3] = system: C. fulvum; test: Greenhouse test against leaf mold in tomato; assay type: in vivo, Cladosporium fulvum; settings: sprayed at a usual concentration; for Morbidity (%) Avg.: average of 3 repeats
Procedure: as §1
To determine the fungicidal activity of the antagonistic microbe of the present invention against C. fulvum causing leaf mold, tomato plants were cultivated in the same manner as in Experimental Example 4-1 in a greenhouse with a dimension of 23.7 m in length, 7.0 m in width and 2.3 m in height. The experiment was performed in triplicate in a randomized block design. For comparison, propineb was sprayed as a control at a usual concentration. Morbidity was determined by examining the infection of 20 stalks of tomatoes per repeat measure and attack frequency was calculated according to the following equation: [formula]
wherein the factor is set to be: 0 when no leaves are infected; 1 when one forth of the total leaves are infected; 2 when half of the total leaves are infected and some of them are withered; 3 when three fourths of the total leaves are infected and half of them are withered; and 4 when two thirds are withered to death.

Compound: CC12CC1(C)C(=O)N(c1cc(Cl)cc(Cl)c1)C2=O (centres unmarked) [Procymidone]
- Control value(%) [1]: 40.2%
- Morbidity (%) Avg. ([1]; average of 3 repeats): 10.4% and 10.4 B %
- Morbidity (%) 1 ([1]; repeat 1): 12.3%
- Morbidity (%) 2 ([1]; repeat 2): 10.6%
- Morbidity (%) 3 ([1]; repeat 3): 8.2%

Compound: CO/C=C(/C(=O)OC)c1ccccc1Oc1cc(Oc2ccccc2C#N)ncn1 [Azoxytrobin, azoxystrobin]
- Control value(%) [2]: 57.6%
- Morbidity (%) Avg. [2]: 9.2 A %
- Morbidity (%) Avg. ([2]; listed as azoxystrobin): 9.2%
- Morbidity (%) 1 ([2]; repeat 1): 9.3%
- Morbidity (%) 2 ([2]; repeat 2): 10.2%
- Morbidity (%) 3 ([2]; repeat 3): 8.2%

Compound: propineb
- Control value(%) [3]: 42.9%
- Morbidity (%) Avg. [3]: 12.0 B %
- Morbidity (%) Avg. ([3]; listed as propineb): 21.9%
- Morbidity (%) 1 ([3]; repeat 1): 10.3%
- Morbidity (%) 2 ([3]; repeat 2): 11.2%
- Morbidity (%) 3 ([3]; repeat 3): 14.5%
